Laboratory results as given in patent publication US20130137126A1, “USE OF A BETA-G[…] FOR THE DETECTION AND/OR IDENTIFICATION OF C. DIFFICILE” (BIOMERIEUX, priority 2010, published 2013).

Assays:
Assay type in all cases: cell-based
Clostridium difficile [1] = experiment: Activating effect of Ar-beta-glucoside compounds on beta-glucosidase activity, colony coloration on agar media with CHE-beta-glucoside; conditions: equimolar compounds with CHE-beta-glucoside 0.3 g/l; 24 h
Description: Six strains of Clostridium difficile were tested on the media comprising a compound which could act as a beta-glucosidase activator in these strains. That of the strain bearing the reference 08 01 091 is 056. The compounds tested as beta-glucosidase activators are as follows: • Arbutin; • O-methyl b-glucoside; • Cellobiose; • Salicin; • 4 Aminophenyl-b-glucoside; • 4-methyl-umbelliferone-b-glucoside; • aesculin.
They were tested at concentrations which make it possible to have the same molarity for each of the compounds.
The media used are prepared on the basis of the C. difficile chromID® medium indicated supra, for example 1, to which is added the CHE-beta-glucoside substrate at 0.3 g/l and, respectively, one of the compounds according to the following table:
(§1) The media are distributed into Petri dishes.
(§2) The seeding is performed from 48 h pre-cultures at 37° C. in anaerobiosis.
(§3) A suspension in physiological water at 0.5 McF is carried out and then the strains are seeded with the 10 μl calibrated loop.
Readings are performed after 24 h of incubation at 37° C. and in anaerobiosis.
(§4) Reading scale of the enzymatic activity/ coloration • 0=no activity • 0.5=very pale coloration • 1=clear low-intensity coloration • 2=distinct medium-intensity coloration, • 3=presence of an intense coloration, • 4=presence of a very intense coloration.
(§5) The coloration obtained with this substrate is grey up to an intensity of 1, and black for the other values.

Clostridium difficile [2] = experiment: Activating effect of arbutin on various beta-glucosidase substrates, colony coloration on agar media; conditions: substrates DHF-, alizarin- and 3HF-beta-glucoside; 24 h and 48 h
Description: The eight strains of Clostridium difficile tested in Example 1 were tested on media comprising DHF-beta-glucoside (media A), alizarin-beta-glucoside (media B) or 3HF-beta-glucoside (Media C) and an increasing concentration of arbutin.
The reading of the dishes is then carried out at 24 h and 48 h.
The media used are prepared on the basis of the C. difficile chromID® medium indicated supra, for example 1, to which arbutin is added according to the following table:
According to the substrates, the media are therefore as follows: • DHF-beta-glucoside at 400 mg/L (media TA, 1A, 2A and 3A) • Alizarin-beta-glucoside at 50 mg/L (media TB, 1 B, 2B and 3B) • 3HF-beta-glucoside at 300 mg/L (media TC, 1C, 2C and 3C)
as §1, §2, §3
Readings are performed after 24 h and 48 h of incubation at 37° C. in anaerobiosis.
as §4

Clostridium difficile [3] = experiment: Activating effect of arbutin on a beta-glucosidase substrate (CHE-beta-glucoside), colony coloration on agar media; conditions: 24 h
Description: Eight strains of Clostridium difficile, from the Applicant's collection, were tested on media comprising arbutin at different concentrations with or without CHE-beta-glucoside present. The reading of the dishes is then carried out at 24 h. The media is made up as follows:
C. difficile ChromID® base common to all of the media:
Then addition of arbutin and/or CHE-beta-glucoside, according to the media:
as §1, §2, §3
Readings are performed after 24 h of incubation at 37° C. in anaerobiosis.
as §4, §5

## Nc1ccc(O[C@@H]2O[C@H](CO)[C@@H](O)[C@H](O)[C@H]2O)cc1 [4-Aminophenyl-beta-glucoside]
Clostridium difficile [1]
  activating effect on beta-glucosidase of Clostridium difficile: observed activation of beta-glucosidase

## OC[C@H]1O[C@@H](Oc2ccc(O)cc2)[C@H](O)[C@@H](O)[C@@H]1O [Arbutin, hydroquinone-beta-D-glucoside]
Clostridium difficile [1]
  activating effect on beta-glucosidase of Clostridium difficile: observed activation of beta-glucosidase
Clostridium difficile [2]
  coloration intensity in the presence of arbutin: an improvement in the coloration intensity is noted regardless of the substrate used
Clostridium difficile [3]; arbutin added in the presence of CHE-beta-glucoside
  activation of the beta-glucosidase (intensification of coloration, grey to black): an activation of the beta-glucosidase is noted
Clostridium difficile [3]; arbutin alone, without CHE-beta-glucoside
  coloration of the colonies: does not allow coloration of the colonies to be obtained

## CO[C@@H]1O[C@H](CO)[C@@H](O)[C@H](O)[C@H]1O [O-methyl-beta-glucoside, reference compound]
Clostridium difficile [1]
  activating effect on beta-glucosidase of Clostridium difficile: do not have an activating effect

## O=c1ccc2cc(O[C@@H]3O[C@H](CO)[C@@H](O)[C@H](O)[C@H]3O)c(O)cc2o1 [aesculin, 6,7-dihydroxy-coumarin-beta-glucoside]
Clostridium difficile [1]
  activating effect on beta-glucosidase of Clostridium difficile: observed activation of beta-glucosidase

## O=C[C@H](O)[C@@H](O)[C@H](O[C@@H]1O[C@H](CO)[C@@H](O)[C@H](O)[C@H]1O)[C@H](O)CO [cellobiose, 4-O-beta-D-glucopyranosyl-D-glucose, reference compound]
Clostridium difficile [1]
  activating effect on beta-glucosidase of Clostridium difficile: do not have an activating effect

## OCc1ccccc1O[C@@H]1O[C@H](CO)[C@@H](O)[C@H](O)[C@H]1O [salicin, 2-(hydroxymethyl)-phenyl-beta-D-glucoside]
Clostridium difficile [1]
  activating effect on beta-glucosidase of Clostridium difficile: observed activation of beta-glucosidase
